Earlier results, collected in patent US20260206768A1, “COMBINATION OF VARIOUS NITROGEN FIXING BACTERIA WITH VARIOUS BIOLOGICAL PRODUCTS TO ACHIEVE SYNERGISTIC EFFECTS” (Pivot Bio, Inc., priority 2022, published 2026).
Peptide text beside a SMILES is read from it.

Details: for Useful pH range: buffering range

Compound	Useful pH range	pKa at 25° C.
O=S(=O)(O)CCCNC1CCCCC1 [CAPS]	9.7-11.1	10.4
CC(C)(CO)NCC(O)CS(=O)(=O)O (centres unmarked) [AMPSO]	8.3-9.7	9
O=P([O-])([O-])[O-].[K+].[K+].[K+] [K3PO4]	11.5-12.3	
NC(=O)CN(CC(=O)O)CC(=O)O [ADA]	6.0-7.2	6.59
NC(=O)CNCCS(=O)(=O)O [ACES]	6.1-7.5	6.78
CC(C)(N)CO [AMP]	9.0-10.5	9.7
O=S(=O)(O)CCCN1CCN(CCO)CC1 [EPPS]	7.3-8.7	8
OCC(CO)(CO)NCCCNC(CO)(CO)CO [Bis-Tris Propane]	6.3-9.5	
CC(=O)O [Acetic acid, Ethanoic acid]	3.8-5.8	
O=S(=O)(O)CCN(CCO)CCO [BES]	6.4-7.8	7.09
CC(N)(CO)CO [AMPD]	7.8-9.7	8.8
OCCN(CCO)CCO [TEA]	7.3-8.3	
O=P([O-])([O-])O.[K+].[K+] [K2HPO4, dipotassium phosphate]	8.7-9.4	

Results, then the compound that gave them:

Useful pH range	pKa at 25° C.	Compound
8.25-10.25		OB(O)O [Boric acid]
7.6-9.0	8.3	O=S(=O)(O)CCCCN1CCN(CCO)CC1 [HEPBS]
6.1-7.5	6.76	O=S(=O)(O)CCN1CCN(CCS(=O)(=O)O)CC1 [PIPES, piperazine-N,N′-bis(2-ethanesulfonic acid)]
7.2-8.5	7.8	O=S(=O)(O)CC(O)CN1CCN(CC(O)CS(=O)(=O)O)CC1 (centres unmarked) [POPSO]
7.0-8.2		O=S(=O)(O)CC(O)CNC(CO)(CO)CO (centres unmarked) [TAPSO, 3-[N-tris(hydroxymethyl)methylamino]-2-hydroxypropanesulfonic acid]
8.9-10.3		O=S(=O)(O)CC(O)CNC1CCCCC1 (centres unmarked) [CAPSO]
7.7-9.1		O=S(=O)(O)CCCNC(CO)(CO)CO [TAPS, [tris(hydroxymethyl)methylamino]propanesulfonic acid]
2.1-7.4		O=C(O)CC(O)(CC(=O)O)C(=O)O [Citric acid, 2-Hydroxypropane-1,2,3-tricarboxylic acid]
10.0-11.4	10.7	O=S(=O)(O)CCCCNC1CCCCC1 [CABS]
6.9-8.3	7.6	O=S(=O)(O)CCCCN1CCOCC1 [MOBS]
7.5-8.9		NCC(=O)NCC(=O)O [Gly-Gly] (H-Gly-Gly-OH)
7.4-8.8		O=C(O)CNC(CO)(CO)CO [Tricine, N-[tris(hydroxymethyl)methyl]glycine]
8.3-10.3		O=S(=O)(O)CCNC1CCCCC1 [CHES, N-Cyclohexyl-2-aminoethanesulfonic acid]
8.2-9.6	8.9	O=S(=O)(O)CCCCNC(CO)(CO)CO [TABS]
7.0-8.2	7.6	O=S(=O)(O)CC(O)CN(CCO)CCO (centres unmarked) [DIPSO]
6.8-8.2		O=S(=O)(O)CCNC(CO)(CO)CO [TES, 2-[[1,3-dihydroxy-2-(hydroxymethyl)propan-2-yl]amino]ethanesulfonic acid]
